Measurements taken from PubChem BioAssay AID434951 (Broad Institute, 2010).
Active and inactive are the calls of the source.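 The calls were made as follows: active = a fitted half-maximal concentration EC50 for the rise in nuclear signal no higher than ten times the top dose tested; inconclusive = flat fit with activity between 30% and 70%, or unusable fit; inactive = EC50 beyond ten times the top dose.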

These compounds were tested against Hypoxia-inducible factor 1-alpha (Homo sapiens) (UniProt Q16665) (assay: HIF pathway activation, GFP-HIF1alpha translocation – imaging, fluorescence, U2OS GFP-HIF1alpha, confirmation (AID 434951)). Details: U2OS GFP-HIF1alpha nuclear intensity, high-content imaging.
Hypoxia-inducible factor 1-alpha (Homo sapiens), sequence (Q16665 whole entry, looked up): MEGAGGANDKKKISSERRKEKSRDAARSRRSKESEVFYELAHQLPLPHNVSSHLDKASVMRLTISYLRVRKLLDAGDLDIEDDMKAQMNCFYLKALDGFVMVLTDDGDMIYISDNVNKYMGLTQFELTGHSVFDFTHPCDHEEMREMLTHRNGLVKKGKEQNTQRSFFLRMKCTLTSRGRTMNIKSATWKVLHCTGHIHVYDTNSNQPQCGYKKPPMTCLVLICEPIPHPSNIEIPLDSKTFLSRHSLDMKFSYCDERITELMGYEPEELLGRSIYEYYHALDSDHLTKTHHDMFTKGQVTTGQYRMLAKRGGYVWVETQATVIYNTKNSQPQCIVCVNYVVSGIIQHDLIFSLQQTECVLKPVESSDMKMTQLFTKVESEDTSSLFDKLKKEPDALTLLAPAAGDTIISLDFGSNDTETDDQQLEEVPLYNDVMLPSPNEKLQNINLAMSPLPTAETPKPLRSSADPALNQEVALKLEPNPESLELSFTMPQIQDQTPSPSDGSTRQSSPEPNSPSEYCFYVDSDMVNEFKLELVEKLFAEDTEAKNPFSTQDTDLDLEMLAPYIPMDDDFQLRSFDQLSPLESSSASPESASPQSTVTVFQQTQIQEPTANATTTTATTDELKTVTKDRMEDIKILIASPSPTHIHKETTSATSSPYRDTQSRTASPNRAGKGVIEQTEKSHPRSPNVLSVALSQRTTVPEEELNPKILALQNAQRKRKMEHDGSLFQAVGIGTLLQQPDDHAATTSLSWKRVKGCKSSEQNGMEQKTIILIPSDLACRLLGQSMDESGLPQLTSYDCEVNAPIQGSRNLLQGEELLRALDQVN
For `CNc1c2c(nn1C)CCCC2`, the EC50 was > 35 µM (inactive).
`Cc1cc(C)[n+](Cc2ccccc2)cc1C(N)=O` was tested, and the EC50 was > 35 µM (inactive).
With `CCOCCCNC(=S)Nc1cc(C)cc(C)c1` the EC50 was > 35 µM (inactive).
`O=C(N/N=C/c1c(O)ccc2ccccc12)c1cccnc1` gave an EC50 of 0.678 µM.
With `O=C(c1ccc(-c2nnc(-c3ccccc3)o2)cc1)N1CCCCCC1` the EC50 was > 35 µM (inactive).
With `c1ccc(-c2nnc3sc(-c4cc5ccccc5o4)nn23)cc1` the EC50 was > 35 µM (inactive).
